Test results as given in publication PMC9229798, “Antioxidant Activity and Cytotoxicity of Aromatic Oligosulfides” (Molecules, 2022).

Test: TBARS accumulation in liver homogenate (long-term LPO)
Design: species or system Russian sturgeon
Settings: 0.1 mM
Description: The liver is the main organ that all metabolic products pass through. In addition, proteins of the antioxidant defense system are concentrated in the liver, which prevent the toxic effects of various ROS. The oxidation of liver lipids, which compose cell membranes, directly causes cell damage in vivo. Therefore, the liver is similar to biological systems and is considered as a classic model system for studying LPO processes in vitro and in vivo [56]. We studied the antioxidant potential of the compounds on a model system of a long-term process of lipid peroxidation in sturgeon liver. The assay allowed evaluation of the effect of the compounds under prolonged oxidative stress when possible an increase in peroxidation processes and a decrease of antioxidants concentration over time, and inversion of antioxidant/prooxidant properties in vitro [57].
The experiments in vitro were carried out using the liver of a Russian sturgeon raised in a unique aqua complex for the reproduction of valuable fish species of the Federal Research Center Southern Scientific Center of the Russian Academy of Sciences within the framework of State Assignment (Project No. 122020100328-1). All manipulations were conducted according to the international rules GLP (Good Laboratory Practice). The samples of fish liver were fixed in the cold.
The LPO intensity was estimated according to the accumulation of carbonyl products forming a colored complex with thiobarbituric acid (TBARS). A liver of Russian sturgeon (10 g) was homogenized in the cold, and the studied compounds were added at a concentration of 0.1 mM in EtOH to a solution of 1.2% potassium chloride (390 mL) precooled to 0–4 °C. The absence of any influence of EtOH on the LPO rate in the control was preliminarily established under these conditions. […] The supernatant was sampled, and the extinction of sample was measured using a SF-103 spectrophotometer at λ = 532 nm relative to the control sample. […]

With `c1ccc(SSSc2ccccc2)cc1` [Compound 1, diphenyl trisulfide] the “reduction of the level of TBARS” value (after 1 h of incubation) was 64%, the “reduction of the level of TBARS” value (after 24 h) was 48% and the “reduction of the level of TBARS” value (after 48 h) was 37%.
